Drawing on the OPERA property sets (Mansouri et al. 2018), this text covers logP for 133 molecules.

Molecules are shown by their SMILES. Peptide text beside a SMILES is read from it.

Molecule `CS(=O)(=O)Nc1ccccc1` displayed a logP of 0.95.
For `CN(C)c1ccnnc1`, the logP is -0.09.
The same measure for `c1ccc(COCc2ccccc2)cc1`: 3.31.
`C1=CCCC=CCC1`: the logP was 3.16.
Consider `CCOC(=O)C(=Cc1c(Cl)cccc1Cl)C(C)=O`, for which the logP is 2.86.
Molecule `CCNc1nc(Cl)nc(NC(C)(C)C#N)n1` yielded a logP of 2.22.
As to `O=C1CCCCC1`, the logP amounted to 0.81.
`CNC(=O)Oc1ccccc1C(C)C` registered a logP of 2.31.
The same measure for `O=c1[nH]cc(F)c(=O)[nH]1`: -0.89; for `COc1ccc(Cl)cc1`: 2.78; for `NCCCNC(=O)c1ccccc1`: 0.3.
For `CCCCNc1ccccc1`, the logP was 3.58.
In turn, `O=C(O)CC[Se]Cc1ccc([N+](=O)[O-])cc1` had a logP of 1.63.
For `COCC(F)Cn1ccnc1[N+](=O)[O-]` (stereo not drawn), the logP stood at 0.18.
Consider `CN(C)CCOC(=O)c1ccc(Cl)cc1`, for which the logP was 2.63.
For the molecule `O=C(O)Cc1ccc([N+](=O)[O-])cc1`, the logP is 1.39.
As to `CCCNC(=O)NS(=O)(=O)c1ccc(Cl)cc1`, the logP stood at 2.27.
For the molecule `CC(C)=C1C(=O)OC2CC(C)C3C=CC(=O)C3(C)C(O)C12` (stereo not drawn), the lipophilicity (logP) turned out to be 1.47.
`CN(C)c1ccc2c(c1)C(=O)N(S(C)(=O)=O)C2=O` registered a log partition coefficient (logP) of 1.65.
The molecule `CC(=O)N[C@@H](C)C(=O)NCC(=O)N[C@@H](Cc1ccccc1)C(N)=O` (Ac-Ala-Gly-Phe-NH2) showed a logP of -0.71.
`Cc1cnc(C)cn1` registered a logP of 0.63.
Turning to `COc1cc(C(=O)NN)ccn1`, the logP is -0.1.
`Cc1cccc(N)c1` displayed a logP of 1.4.
Under `CC(=O)Cc1ccccc1` stands 1.44.
`Cc1onc(-c2c(Cl)cccc2Cl)c1C(=O)N[C@@H]1C(=O)N2[C@@H]1SC(C)(C)[C@@H]2C(=O)O` came in with a logP of 2.91.
For the molecule `CC(C)c1ccc(NC(=O)N(C)C)cc1`, the logP turned out to be 2.87.
In turn, `O=C(NP(=O)(N1CC1)N1CC1)c1cccc(I)c1` registered a logP of 1.91.
For `CCCCCCCCl`, the logP amounted to 4.15.
`COc1ccc(C(=O)O)cc1OC` returned a logP of 1.61.
Molecule `Cc1onc(-c2ccccc2)c1C(=O)NC1C(=O)N2C1SC(C)(C)C2C(=O)O` (stereo not drawn) displayed a logP of 2.38.
The molecule `CN(C)C(N(C)C)=S(I)c1ccc(I)cc1` (stereo not drawn) showed a logP of 0.28.
With `OCC1OC(n2cnc3c(S)ncnc32)C(O)C1O` (stereo not drawn), the logP is -0.6.
Consider `Nc1ccnc2c([N+](=O)[O-])cccc12`, for which the logP was found to be 1.31.
In turn, `CCN(CC)S(=O)(=O)c1ccc(OC)c(N)c1` displayed a logP of 1.7.
With `O=C(O)c1ccc(CO)cc1`, the logP stood at 0.93.
As for `O=C1c2ccccc2C(=O)N1CCCCBr`, the logP stood at 2.96.
Molecule `O=C(O)c1ccc(Oc2ccccc2)cc1` yielded a logP of 3.91.
Molecule `CCC(C)NP(=O)(OC)Oc1cc(Cl)c(Cl)cc1Cl` (stereo not drawn) displayed a logP of 3.99.
In turn, `NC(=O)Nc1ccc(F)cc1` displayed a logP of 1.04.
Take `CC(=O)NC(C)C(=O)NC(C)C(=O)NC(C)C(=O)NC(C)(C)C` (stereo not drawn): the logP is -0.51.
For the molecule `COc1ccc(C(O)C(C(=O)O)c2ccc(-c3ccccc3)cc2)cc1` (stereo not drawn), the logP is 3.59.
The same measure for `CC12CCC(=O)C=C1CCC1C2C(O)CC2(C)C1CCC2(O)C(=O)COC(=O)CCC(N)=O` (stereo not drawn): 1.43.
`CCC(C)Cl` (stereo not drawn) had a logP of 2.33.
The molecule `COP(=S)(OC)SCC(=O)N(C)C=O` displayed a logP of 1.48.
In turn, `CCOP(=O)(OCC)Oc1cc(C)nc(C(C)C)n1` gave a logP of 2.07.
`COc1c(C)cccc1C` came in with a logP of 3.02.
Consider `CC1(C)OC(=O)c2ccccc21`, for which the logP was found to be 1.73.
Consider `FC(F)(F)Oc1ccccc1`, for which the logP came to 3.17.
The molecule `Oc1c(F)c(F)c(F)c(F)c1F` displayed a logP of 3.23.
The same measure for `CCN(CC)CCNC(=O)c1cc(C#N)c(N)cc1OC`: 1.94; for `Cc1cccc(C)c1`: 3.2.
In turn, `CCCCCC(=O)OCC(=O)C1(O)CCC2C3CCC4=CC(=O)CCC4(C)C3C(O)CC21C` (stereo not drawn) gave a logP of 4.48.
Take `Nc1cccc(Cl)c1`: the logP came out at 1.88.
Under `CCOC(=O)n1cnc(CC(NC(=O)C2CCC(=O)N2)C(=O)N2CCCC2C(N)=O)c1` (stereo not drawn) stands -1.3.
The molecule `CN(C)C(N(C)C)=S(I)c1ccccc1Br` (stereo not drawn) displayed a logP of 0.06.
As for `CCCCCCCC1(c2ccncc2)CCC(=O)NC1=O` (stereo not drawn), the logP is 3.44.
`COc1cc(N)c(Cl)cc1C(=O)NC1CCN(Cc2ccccc2)CC1`: the log partition coefficient (logP) is 3.58.
For `Clc1cc(Cl)c(Cl)c(Cl)c1Cl`, the logP was determined as 5.17.
Molecule `COc1cccc(C(=O)NN)c1` came in with a logP of 0.4.
For the molecule `NNC(=O)c1ccccc1Cl`, the logP is 0.14.
Turning to `COC(=O)c1c[nH]c(C)c1`, the logP is 1.96.
Under `c1ccc(N2CCOCC2)cc1` stands 1.36; under `O=C(O)COc1ccc(Cl)cc1Cl`, 2.81; under `Clc1c(Cl)c(Cl)c2ccccc2c1Cl`, 5.75.
With `BrCCCBr`, the logP was 2.37.
The molecule `O=C(O)c1ccc2oc3ccccc3c(=O)c2c1` had a logP of 3.12.
Consider `NS(=O)(=O)c1cc2c(cc1Cl)NC(Cc1ccccc1)NS2(=O)=O` (stereo not drawn), for which the logP is 0.93.
Take `COc1cccc2c1C(=N)c1c(O)c3c(c(O)c1C2=O)CC(O)(C(=O)CO)CC3OC1CC(N2CCOCC2C#N)C(O)C(C)O1` (stereo not drawn): the logP was determined as 1.97.
`Clc1cc(Cl)nc(-c2ccccc2)n1` yielded a logP of 4.17.
`C1=COCCC1` had a logP of 0.69.
Turning to `Oc1cc(Cl)ccc1Cl`, the logP is 3.06.
In turn, `Nc1nc2nn[nH]c2c(=O)[nH]1` yielded a logP of -0.71.
The same measure for `O=C(O)c1ccc(O)cc1O`: 1.63; for `NC(=O)c1cccc(F)c1`: 0.91.
Under `O=C1CCCCCCN1` stands 0.24; under `O=C(C=Cc1ccco1)c1ccco1`, 2.34.
`CC(=O)Nc1cccc(N(C)C)c1` showed a logP of 1.29.
For `COP(=O)(OC)Oc1ccc([N+](=O)[O-])cc1`, the logP was 1.33.
As for `CCC(=O)OC1(C(=O)CCl)C(C)CC2C3CCC4=CC(=O)C=CC4(C)C3C(O)CC21C` (stereo not drawn), the logP was determined as 3.34.
Take `CN(C)N=Nc1ccc(CCCC(=O)O)cc1`: the logP came to 2.62.
`CCCCCCCCOC(N)=O` yielded a logP of 2.84.
Under `CCCOCCC` stands 2.03; under `CCOC(=O)n1cc(F)c(=O)[nH]c1=O`, -0.17; under `COCC(O)Cn1cnc([N+](=O)[O-])n1` (stereo not drawn), -0.49.
Turning to `CCCCSCS(=O)CC(CO)NC(=O)C=Cc1c(C)[nH]c(=O)[nH]c1=O` (stereo not drawn), the logP stood at 0.14.
The same measure for `CCN(CC)CCOC(=O)C=Cc1ccc(OC)cc1`: 3.55; for `CCOC(=O)C(=Cc1ccccc1OC)C(C)=O`: 2.39.
The same measure for `O=C(CBr)NC(CO)C(O)c1ccc([N+](=O)[O-])cc1` (stereo not drawn): 0.66; for `CCCCc1cccc(OCC(=O)O)c1`: 3.18; for `Clc1ccc2ncccc2c1`: 2.73.
The molecule `CN(C)c1ccc(NS(=O)(=O)c2ccc(N)cc2)cc1` gave a logP of 1.57.
Consider `O=NN(CCCl)C(=O)NC1CCCCC1Cl` (stereo not drawn), for which the logP was 2.73.
Under `CC1(C)S[C@@H]2[C@H](NC(=O)C(C(=O)O)c3ccccc3)C(=O)N2[C@H]1C(=O)O` (stereo partly drawn) stands 1.13.
Molecule `CC1=C(N2CC2)C(=O)C(CCO)=C(N2CC2)C1=O` yielded a logP of 0.49.
`COC(=O)c1ccccc1C` registered a logP of 2.75.
The same measure for `Cc1ccc(-c2nc(N)nc(N)n2)cc1`: 1.92; for `CCOC=O`: 0.23.
In the case of `CC(=O)c1cccc(OCC(=O)O)c1`, the logP came to 0.98.
`COC(=O)CCC(NC(=O)c1ccc(N(C)Cc2cnc3nc(N)nc(N)c3n2)cc1)C(=O)OC` (stereo not drawn) yielded a logP of 0.54.
`CCCC(N)C(=O)O` (stereo not drawn) showed a logP of -2.11.
Molecule `CC(=O)C=Cc1ccco1` came in with a logP of 1.35.
Turning to `CCCCOCC`, the logP was found to be 2.03.
With `CCCCCCC1CCC(=O)O1` (stereo not drawn), the logP amounted to 2.72.
As for `CCC(C)c1ccccc1OC(=O)NC` (stereo not drawn), the logP stood at 2.78.
Molecule `CC(=S)N(c1ccccc1)c1ccccc1` displayed a logP of 2.83.
`O=C1CCC(=O)N1c1ccc([N+](=O)[O-])cc1` had a logP of 0.46.
As to `O=C(CN1CCCCC1)Nc1cccc(Br)c1`, the logP came out at 3.62.
`NC(=O)CCOc1ccccc1` came in with a logP of 0.8.
Take `CC(=O)Nc1cccc(O)c1`: the logP came out at 0.73.
Under `Oc1cccc(Cl)c1Cl` stands 2.84.
The same measure for `Clc1cccc2cccnc12`: 2.44; for `COC(=O)CCCO`: -0.06; for `COCCN(C)c1ccc(Nn2c(C)ccc2C)nn1`: 2.16.
`Cn1c(N)nc2ccc(C#N)cc21` displayed a logP of 1.29.
`CC(C)(C)c1ccccn1` displayed a logP of 2.4.
Take `C[C@]12CC[C@H](O)C[C@H]1CC[C@@H]1[C@@H]2C[C@@H](O)[C@]2(C)[C@@H](C3=CC(=O)OC3)CC[C@]12O`: the logP worked out at 1.1.
`CS(=O)(=O)CCC(N)C(=O)O` (stereo not drawn) registered a logP of -3.1.
Regarding `CC12CCC(O)CC1CCC1C2CCC2(C)C(C3=CC(=O)OC3)C(O)CC12O` (stereo not drawn), the logP came out at 1.6.
The same measure for `N#Cc1ccccc1N`: 1.4.
As to `Cc1ccc(NS(=O)(=O)c2ccc(N)cc2)cc1`, the logP was 2.11.
`COc1cc(CC(C)N)c(OC)cc1C` (stereo not drawn): the logP came out at 2.24.
Molecule `CCNC(=O)c1cccnc1` showed a logP of 0.31.
Under `c1ccc2c(c1)[nH]c1ccccc12` stands 3.72; under `CC=Cc1ccccc1`, 3.35; under `Cc1ccc(Cl)cc1NC1=NCCN1`, 1.83.
With `CNC(=O)Oc1ccc(I)cc1`, the logP amounted to 2.46.
For `NC(=O)CCc1ccccc1`, the logP came out at 0.91.
`CCCC(=O)OCn1cnc(CSCCNC(=NC#N)NC)c1C` returned a logP of 1.6.
As for `CC(C)NCC(O)COc1ccccc1` (stereo not drawn), the logP amounted to 1.72.
For the molecule `NCCCCCC(=O)O`, the logP is -2.95.
Molecule `COc1ccc2cc(C(C)C(=O)OCC(=O)N(CCO)CCO)ccc2c1` (stereo not drawn) gave a logP of 1.7.
Under `CC(C)NC(C)(C)C` stands 1.56.
Regarding `CCC(C)(C)C`, the logP was 3.82.
